The NIST ThermoML archive (doi:10.1016/j.jct.2016.03.021)

Test: wn = mass fraction of the nth substance listed
Details: Liquid; for viscosity: Falling or rolling sphere viscometry; for mass density: Vibrating tube method

NCCO [2-aminoethan-1-ol] + O
Details	mass density, w1 = 0.1001 [kg/m3]	mass density, w1 = 0.2 [kg/m3]	mass density, w1 = 0.3005 [kg/m3]	mass density, w1 = 0.4 [kg/m3]	viscosity, w1 = 0.2 [mPa·s]	viscosity, w1 = 0.3005 [mPa·s]	viscosity, w1 = 0.4001 [mPa·s]
353.15 K, 120000 kPa	1021.2	1021.6	1023.3	1025.2	0.644	0.861	1.128
373.15 K, 100 kPa	960.8	962.5	964.5	966.6	–	–	–
373.15 K, 500 kPa	961	962.7	964.8	966.9	–	–	–
373.15 K, 1000 kPa	961.3	962.9	965	967.1	–	–	–
373.15 K, 2000 kPa	961.8	963.4	965.5	967.6	–	–	–
373.15 K, 5000 kPa	963.1	964.7	966.8	968.9	–	–	–
373.15 K, 10000 kPa	965.5	966.9	969	971.1	–	–	–
373.15 K, 15000 kPa	967.7	969.1	971.2	973.3	–	–	–
373.15 K, 20000 kPa	969.9	971.3	973.4	975.4	–	–	–
373.15 K, 30000 kPa	974.4	975.6	977.6	979.7	–	–	–
373.15 K, 40000 kPa	978.7	979.8	981.7	983.8	–	–	–
373.15 K, 50000 kPa	982.8	983.7	985.6	987.6	–	–	–
373.15 K, 60000 kPa	986.8	987.7	989.5	991.6	–	–	–
373.15 K, 70000 kPa	990.8	991.5	993.3	995.2	–	–	–
373.15 K, 80000 kPa	994.8	995.4	997.1	999.1	–	–	–
373.15 K, 90000 kPa	998.5	999	1000.8	1002.5	–	–	–
373.15 K, 100000 kPa	1002.2	1002.5	1004.2	1006	–	–	–
373.15 K, 110000 kPa	1005.9	1006.1	1007.7	1009.5	–	–	–
373.15 K, 120000 kPa	1009.6	1009.6	1011.1	1012.9	–	–	–
393.15 K, 100 kPa	945.2	946.5	948.4	950	–	–	–
393.15 K, 500 kPa	945.6	946.9	948.8	950.4	–	–	–
393.15 K, 1000 kPa	945.8	947	948.9	950.6	–	–	–
393.15 K, 2000 kPa	946.3	947.5	949.4	951.1	–	–	–
393.15 K, 5000 kPa	947.8	949	950.9	952.5	–	–	–
393.15 K, 10000 kPa	950.3	951.5	953.3	955	–	–	–
393.15 K, 15000 kPa	952.7	953.8	955.7	957.3	–	–	–
393.15 K, 20000 kPa	955.2	956.2	958.1	959.7	–	–	–
393.15 K, 30000 kPa	959.8	960.7	962.6	964.3	–	–	–
393.15 K, 40000 kPa	964.4	965.2	967	968.7	–	–	–
393.15 K, 50000 kPa	968.7	969.4	971.1	972.8	–	–	–
393.15 K, 60000 kPa	973	973.6	975.3	977	–	–	–
393.15 K, 70000 kPa	977.3	977.8	979.5	981.1	–	–	–
393.15 K, 80000 kPa	981.3	981.6	983.2	985	–	–	–
393.15 K, 90000 kPa	985.2	985.6	987.1	988.8	–	–	–
393.15 K, 100000 kPa	989.1	989.4	990.9	992.5	–	–	–
393.15 K, 110000 kPa	993	993	994.6	996.2	–	–	–
393.15 K, 120000 kPa	996.7	996.7	998.2	999.7	–	–	–
